# From patent US6331570A, “Active enantiomer of RARγ-specific agonist” (Bristol-Myers Squibb Company, priority 1999, dated 2001)
# Tests used:
# papillomas = assay: two-stage system of mouse skin carcinogenesis (DMBA initiator, TPA promoter); assay type: in vivo; settings: i.p.
# [1] = prior art / general statement; cited from earlier work
# [2] = 13-cis-retinoic acid 50 mg/kg (dose from text), 10 weeks monitoring
structure (smiles),measurement,setting,value
CC1=C(/C=C/C(C)=C/C=C/C(C)=C\C(=O)O)C(C)(C)CCC1 [13-cis-retinoic acid],number and size of papillomas,"papillomas; 50 mg/kg, 10 weeks",inactive
same,Tumor Burden (mean tumor size per mouse),papillomas; [2],6.8 mm^3
same,Tumor Incidence (% of mice with tumors),papillomas; [2],80%
same,liver toxicity,[1],adverse side-effects on long-term use such as liver toxicity
